{"source": "ChEMBL document CHEMBL1132149", "about": "“Potent bivalent thrombin inhibitors: replacement of the scissile peptide bond at P(1)-P(1)' with arginyl ketomethylene isosteres” (J Med Chem, 1999)", "note": "pKi: −log10 of the molar value."}
{"target": "Prothrombin (Homo sapiens, UniProt P00734)", "assay": "Inhibitory constant against thrombin"}
{"compound": "CC[C@@H](C)[C@H](NC(=O)[C@@H]1CCCN1C(=O)[C@H](CCC(=O)O)NC(=O)[C@H](Cc1ccc(O)cc1)NC(=O)[C@H](CC(=O)O)NC(=O)CNC(=O)CNC(=O)CNC(=O)CNC(=O)CN(CC(=O)[C@H](CCCN=C(N)N)NC(=O)[C@@H]1CCCN1C(=O)[C@H](N)CC1CCCCC1)C(C)=O)C(=O)N1CCC[C@H]1C(=O)N[C@@H](CCC(=O)O)C(=O)N[C@@H](CCC(=O)O)C(=O)N[C@@H](Cc1ccc(O)cc1)C(=O)N[C@@H](CC1CCCCC1)C(=O)N[C@@H](CC(=O)O)C(=O)O", "pKi": 11.77}
{"compound": "CC[C@@H](C)[C@H](NC(=O)[C@H](CCC(=O)O)NC(=O)[C@H](CCC(=O)O)NC(=O)[C@H](Cc1ccccc1)NC(=O)[C@H](CC(=O)O)NC(=O)CNC(=O)CNC(=O)CNC(=O)CNC(=O)CSCC(=O)[C@H](CCCN=C(N)N)NC(=O)[C@@H]1CCCN1C(=O)[C@H](N)Cc1ccccc1)C(=O)N1CCC[C@H]1C(=O)N[C@@H](CCC(=O)O)C(=O)N[C@@H](CCC(=O)O)C(=O)N[C@@H](Cc1ccc(O)cc1)C(=O)N[C@@H](CC(C)C)C(=O)N[C@@H](CCC(N)=O)C(=O)O", "pKi": 11.03}
{"compound": "CC[C@@H](C)[C@H](NC(=O)[C@H](CCC(=O)O)NC(=O)[C@H](CCC(=O)O)NC(=O)[C@H](Cc1ccccc1)NC(=O)[C@H](CC(=O)O)NC(=O)CNC(=O)CNC(=O)CNC(=O)CNC(=O)CSCC(=O)[C@H](CCCNC(=N)N)NC(=O)[C@@H]1CCCN1C(=O)[C@@H](Cc1ccccc1)NC(C)=O)C(=O)N1CCC[C@H]1C(=O)N[C@@H](CCC(=O)O)C(=O)N[C@@H](CCC(=O)O)C(=O)N[C@@H](Cc1ccc(O)cc1)C(=O)N[C@@H](CC(C)C)C(=O)N[C@@H](CCC(N)=O)C(=O)O", "pKi": 8.97}
{"compound": "CC[C@@H](C)[C@H](NC(=O)[C@H](CCC(=O)O)NC(=O)[C@H](CCC(=O)O)NC(=O)[C@H](Cc1ccccc1)NC(=O)[C@H](CC(=O)O)NC(=O)CNC(=O)CCCCCNC(=O)CNCC(=O)NCC(=O)[C@H](CCCNC(=N)N)NC(=O)[C@@H]1CCCN1C(=O)[C@H](N)Cc1ccccc1)C(=O)N1CCC[C@H]1C(=O)N[C@@H](CCC(=O)O)C(=O)N[C@@H](CCC(=O)O)C(=O)N[C@@H](Cc1ccc(O)cc1)C(=O)N[C@@H](CC(C)C)C(=O)N[C@@H](CCC(N)=O)C(=O)O", "pKi": 8.14}
{"compound": "CC[C@@H](C)[C@H](NC(=O)[C@@H]1CCCN1C(=O)[C@H](CCC(=O)O)NC(=O)[C@H](Cc1ccc(O)cc1)NC(=O)[C@H](CC(=O)O)NC(=O)CNC(=O)CNC(=O)CNC(=O)CNC(=O)CN(C)CC(=O)[C@H](CCCNC(=N)N)NC(=O)[C@@H]1CCCN1C(=O)[C@H](N)CC1CCCCC1)C(=O)N1CCC[C@H]1C(=O)N[C@@H](CCC(=O)O)C(=O)N[C@@H](CCC(=O)O)C(=O)N[C@@H](Cc1ccc(O)cc1)C(=O)N[C@@H](CC1CCCCC1)C(=O)N[C@@H](CC(=O)O)C(=O)O", "pKi": 11.70}
{"compound": "CC[C@@H](C)[C@H](NC(=O)[C@@H]1CCCN1C(=O)[C@H](CCC(=O)O)NC(=O)[C@H](Cc1ccc(O)cc1)NC(=O)[C@H](CC(=O)O)NC(=O)CNC(=O)CNC(=O)CNC(=O)CNC(=O)CN(C)CC(=O)[C@H](CCCNC(=N)N)NC(=O)[C@@H]1CCCN1C(=O)[C@H](N)Cc1ccccc1)C(=O)N1CCC[C@H]1C(=O)N[C@@H](CCC(=O)O)C(=O)N[C@@H](CCC(=O)O)C(=O)N[C@@H](Cc1ccc(O)cc1)C(=O)N[C@@H](CC1CCCCC1)C(=O)N[C@@H](CC(=O)O)C(=O)O", "pKi": 10.46}
{"compound": "CC[C@@H](C)[C@H](NC(=O)[C@@H]1CCCN1C(=O)[C@H](CCC(=O)O)NC(=O)[C@H](Cc1ccc(O)cc1)NC(=O)[C@H](CC(=O)O)NC(=O)CNC(=O)CNC(=O)CNC(=O)CNC(=O)[C@H](C)NCC(=O)[C@H](CCCN=C(N)N)NC(=O)[C@@H]1CCCN1C(=O)[C@H](N)CC1CCCCC1)C(=O)N1CCC[C@H]1C(=O)N[C@@H](CCC(=O)O)C(=O)N[C@@H](CCC(=O)O)C(=O)N[C@@H](Cc1ccc(O)cc1)C(=O)N[C@@H](CC1CCCCC1)C(=O)N[C@@H](CC(=O)O)C(=O)O", "pKi": 11.82}
{"compound": "CC[C@@H](C)[C@H](NC(=O)[C@H](CCC(=O)O)NC(=O)[C@H](CCC(=O)O)NC(=O)[C@H](Cc1ccccc1)NC(=O)[C@H](CC(=O)O)NC(=O)CNC(=O)CNC(=O)CNC(=O)CNC(=O)CN(C)CC(=O)[C@H](CCCNC(=N)N)NC(=O)[C@@H]1CCCN1C(=O)[C@H](N)Cc1ccccc1)C(=O)N1CCC[C@H]1C(=O)N[C@@H](CCC(=O)O)C(=O)N[C@@H](CCC(=O)O)C(=O)N[C@@H](Cc1ccc(O)cc1)C(=O)N[C@@H](CC(C)C)C(=O)N[C@@H](CCC(N)=O)C(=O)O", "pKi": 10.08}
{"compound": "CC[C@@H](C)[C@H](NC(=O)[C@@H]1CCCN1C(=O)[C@H](CCC(=O)O)NC(=O)[C@H](Cc1ccc(O)cc1)NC(=O)[C@H](CC(=O)O)NC(=O)CNC(=O)[C@H](CC(N)=O)NC(=O)CNC(=O)CNC(=O)CNC(=O)CNC(=O)CN(C)CC(=O)[C@H](CCCNC(=N)N)NC(=O)[C@@H]1CCCN1C(=O)[C@H](N)CC1CCCCC1)C(=O)N1CCC[C@H]1C(=O)N[C@@H](CCC(=O)O)C(=O)N[C@@H](CCC(=O)O)C(=O)N[C@@H](C)C(=O)N[C@@H](CC1CCCCC1)C(=O)N[C@H](CCC(=O)O)C(=O)O", "pKi": 12.06}
{"compound": "CC[C@@H](C)[C@H](NC(=O)[C@@H]1CCCN1C(=O)[C@H](CCC(=O)O)NC(=O)[C@H](Cc1ccc(O)cc1)NC(=O)[C@H](CC(=O)O)NC(=O)CNC(=O)CNC(=O)CNC(=O)CNC(=O)CSCC(=O)[C@H](CCCN=C(N)N)NC(=O)[C@@H]1CCCN1C(=O)[C@H](N)CC1CCCCC1)C(=O)N1CCC[C@H]1C(=O)N[C@@H](CCC(=O)O)C(=O)N[C@@H](CCC(=O)O)C(=O)N[C@@H](C)C(=O)N[C@@H](CC1CCCCC1)C(=O)N[C@H](CCC(N)=O)C(=O)O", "pKi": 12.46}
{"compound": "CC[C@@H](C)[C@H](NC(=O)[C@@H]1CCCN1C(=O)[C@H](CCC(=O)O)NC(=O)[C@H](Cc1ccc(O)cc1)NC(=O)[C@H](CC(=O)O)NC(=O)CNC(=O)[C@H](CC(N)=O)NC(=O)CNC(=O)CNC(=O)CNC(=O)CN[C@@H]1CCCN1CC(=O)[C@H](CCCN=C(N)N)NC(=O)[C@@H]1CCCN1C(=O)[C@H](N)CC1CCCCC1)C(=O)N1CCC[C@H]1C(=O)N[C@@H](CCC(=O)O)C(=O)N[C@@H](CCC(=O)O)C(=O)N[C@@H](C)C(=O)N[C@@H](CC1CCCCC1)C(=O)N[C@H](CCC(=O)O)C(=O)O", "pKi": 11.24}
